Results as given in patent publication US20030170791A1, “Gene family encoding membrane steroid receptors” (priority 2001, published 2003).

Columns and labels:
[1] = biological target: T1, seatrout recombinant mPR produced in E. coli (Cynoscion nebulosus, UniProt Q801D8); test: Steroid binding to recombinant seatrout mPR produced in E. coli (single-point, competition, saturation, kinetics); settings: for specific binding of 3H-steroid (steroid specificity): single-point assay, 10 nM 3H-steroid with or without 100-fold excess non-radioactive steroid
T1 construct: The coding region of the steroid membrane receptor was amplified by PCR from a full-length cDNA plasmid clone; made in house; host or cells: E. coli BL21 (DE3), pET vector
T1 sequence (Q801D8 1-352): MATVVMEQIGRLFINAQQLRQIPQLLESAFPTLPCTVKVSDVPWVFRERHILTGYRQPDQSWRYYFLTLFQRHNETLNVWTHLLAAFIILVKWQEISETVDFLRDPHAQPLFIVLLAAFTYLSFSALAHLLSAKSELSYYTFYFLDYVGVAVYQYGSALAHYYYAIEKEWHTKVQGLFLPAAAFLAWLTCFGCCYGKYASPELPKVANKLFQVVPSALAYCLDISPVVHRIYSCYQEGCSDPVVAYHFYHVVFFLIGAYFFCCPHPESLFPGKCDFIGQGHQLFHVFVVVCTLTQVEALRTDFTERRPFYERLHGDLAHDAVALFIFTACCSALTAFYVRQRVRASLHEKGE
Description: The cloned membrane progestin receptor was expressed in E. coli and the binding of the recombinant protein to steroids was analyzed by a radiolabeled receptor assay.
(§1) The PCR products were purified by electrophoresis using low-melting gel and a QIAquick Gel Extraction Kit. The purified PCR product was ligated into a pET expression vector. The pET vector was transformed into BL21 (DE3) E. coli cells. The positive clones were purified and sequenced. The plasmid without an insert was used as control. Recombinant protein was induced with IPTG at 25° C. and soluble recombinant proteins were extracted and analyzed.
(§2) Initially, steroid specificity of the recombinant receptor was determined from single-point competition assays using 10 nM ^3H-steroid in the absence (total binding) or presence of 100-fold excess non-radioactive steroid (nonspecific binding, FIG. 8).
Full competition curves were generated with 10 nM 3H-progesterone (total binding) or in combination with 1 nM-10 μM of various steroids (FIG. 8).
(§3) Saturation kinetics of H^3-progesterone binding to the recombinant receptor were conducted with 7 progesterone concentrations (range 0.5-40 nM) in the absence (total binding) or presence of 1 μM excess cold steroid (nonspecific binding, FIG. 11).

[2] = system: E. coli control proteins; test: Steroid binding to E. coli control proteins (vector without insert); settings: for binding to the control proteins: single-point assay, 10 nM 3H-steroid
Description: as §1
as §2, with “8). […] No binding of P4 and 17-P to the control proteins was observed (FIG. 7).” for “8).”
as §3

[3] = biological target: T2, recombinant human kidney mSR (Homo sapiens, UniProt Q9NXK6); test: 3H-progesterone binding to recombinant human kidney mSR (saturation, kinetics, competition); settings: for displacement of 3H-progesterone: competition curves, 10 nM 3H-progesterone, 1 nM-10 μM competitor
T2 construct: The coding region of the steroid membrane receptor was amplified by PCR from a full-length cDNA plasmid clone; made in house; host or cells: E. coli
T2 sequence (Q9NXK6 1-330): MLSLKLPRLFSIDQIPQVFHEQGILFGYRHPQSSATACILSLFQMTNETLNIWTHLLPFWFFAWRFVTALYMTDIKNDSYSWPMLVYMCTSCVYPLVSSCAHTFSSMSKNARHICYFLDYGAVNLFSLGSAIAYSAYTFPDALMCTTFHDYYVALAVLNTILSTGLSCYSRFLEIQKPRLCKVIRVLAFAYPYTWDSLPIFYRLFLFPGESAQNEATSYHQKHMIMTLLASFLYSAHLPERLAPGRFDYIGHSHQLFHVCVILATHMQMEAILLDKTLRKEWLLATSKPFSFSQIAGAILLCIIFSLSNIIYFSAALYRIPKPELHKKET
Description: (§4) Receptor Binding of Human Membrane Steroid Receptors. Mouse testicular and human testicular and kidney mSR were expressed in E. coli and binding of the recombinant proteins to steroids was studied. The membrane steroid receptor from human brain was not expressed since the clone only contains part of the coding region.
(§5) Binding Characters of Human Kidney Membrane Steroid Receptor. Saturation kinetics of ^3H-progesterone binding to the recombinant human kidney mSR was conducted with 7 progesterone concentrations (range 0.5-40 nM) in the absence (total binding) or presence of 1 μM excess cold steroid (nonspecific binding, FIG. 23).
The specific binding dissociated quickly with a t1/2 dissociation of 2 minutes (FIG. 24).
Full competition curves were generated with 10 nM 3 H-progesterone (total binding) or in combination with 1 nM-10 μM of various steroids (FIG. 25, 26). […] This binding was very specific for 21 carbon steroids lacking a functional group at the 11 position.

[4] = biological target: T3, solubilized seatrout ovarian membrane progestin (20β-S) receptor (Cynoscion nebulosus, UniProt Q801D8); test: [3H]20β-S binding to solubilized seatrout ovarian membrane progestin receptor (DCC assay; saturation, Scatchard, association/dissociation); design: species or system spotted seatrout (Cynoscion nebulosus)
T3 sequence (Q801D8 1-352): T1 sequence (Q801D8 1-352)
Description: 20β-S receptor binding in solubilized membrane preparations was assayed using dextran-coated charcoal (DCC) to separate bound from steroid. The incubation conditions were similar to those used for the intact membrane preparation with the exception that 100-fold excess unlabeled 20β-S was used to determine non-specific binding. The incubation was terminated by adding 1-ml ice-cold DCC suspension (0.1 g dextran T-70 and 1 g charcoal per 100 ml HA buffer). The tubes were vortexed and the reaction mixture was incubated on ice for 5 minutes to absorb free steroid followed by centrifugation at 3200 g for 10 minutes at 4° C. The radioactivities of the filters or supernatants were measured using Beckman LS 6000SC Scintillation Counter (Beckman Instruments Inc., Houston, Tex.).
Saturation kinetics of [^3H]20β-S binding to the solubilized membrane receptor was conducted with six radiolabeled 20β-S concentrations (range 0.25-10 nM) in the absence (total binding) or presence of 100-fold excess cold steroid (non-specific binding). The dissociation constant (Kd) and receptor concentration (Bmax) were calculated from Scatchard plots. One point assays were conducted with 5 nM radiolabeled 20β-S with or without 100-fold excess unlabeled steroid.
The rate of 20β-S association to the solubilized receptor was determined by measuring the specific binding of [^3H]20β-S after-incubation periods of 30 seconds to 24 hours. The rate of dissociation was determined by first allowing samples to equilibrate with tracer for 30 minutes before the addition of 100-fold excess unlabeled 20β-S and incubation for periods of 30 seconds to 24 hours.

[5] = biological target: T4, recombinant mouse testicular mSR (Mus musculus, UniProt Q80ZE5); test: Saturation/Scatchard analysis of 3H-progesterone binding to recombinant mouse testicular mSR; settings: Scatchard analysis
T4 construct: The coding region of the steroid membrane receptor was amplified by PCR from a full-length cDNA plasmid clone; made in house; host or cells: E. coli
T4 sequence (Q80ZE5 1-354): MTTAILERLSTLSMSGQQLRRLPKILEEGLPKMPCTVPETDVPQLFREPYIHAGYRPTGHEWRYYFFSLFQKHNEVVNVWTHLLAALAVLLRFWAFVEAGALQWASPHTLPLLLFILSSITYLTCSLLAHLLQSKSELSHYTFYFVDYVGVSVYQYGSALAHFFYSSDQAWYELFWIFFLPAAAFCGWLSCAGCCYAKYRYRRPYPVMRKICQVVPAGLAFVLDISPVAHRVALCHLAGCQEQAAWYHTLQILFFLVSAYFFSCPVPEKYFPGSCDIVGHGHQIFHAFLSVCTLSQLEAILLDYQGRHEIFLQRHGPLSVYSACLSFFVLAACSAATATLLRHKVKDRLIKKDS
Description: as §4
as §5, with “Characteristics” for “Characters”, “Mouse Testicular” for “Human Kidney”, “mouse testicular” for “human kidney”, “of” for “of 1 μM”, “21).” for “23).”

[6] = biological target: T5, recombinant human testicular mSR (Homo sapiens, UniProt Q86WK9); test: Saturation/Scatchard analysis of 3H-progesterone binding to recombinant human testicular mSR; settings: Scatchard analysis
T5 construct: The coding region of the steroid membrane receptor was amplified by PCR from a full-length cDNA plasmid clone; made in house; host or cells: E. coli
T5 sequence (Q86WK9 1-346): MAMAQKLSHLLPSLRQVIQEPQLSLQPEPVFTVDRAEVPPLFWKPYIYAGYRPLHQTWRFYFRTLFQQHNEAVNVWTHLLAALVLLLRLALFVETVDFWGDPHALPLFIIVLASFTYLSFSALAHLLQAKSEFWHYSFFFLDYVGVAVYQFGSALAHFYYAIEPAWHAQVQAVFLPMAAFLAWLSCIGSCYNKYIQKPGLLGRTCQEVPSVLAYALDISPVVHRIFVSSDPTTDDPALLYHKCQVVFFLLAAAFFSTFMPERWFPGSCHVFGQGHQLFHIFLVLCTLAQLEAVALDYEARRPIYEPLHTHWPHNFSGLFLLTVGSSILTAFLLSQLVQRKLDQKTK
Description: as §4
as §5, with “Characteristics” for “Characters”, “Testicular” for “Kidney”, “testicular” for “kidney”, “22).” for “23).”

Compound: C[C@]12CCC(=O)C[C@@H]1CC[C@@H]1[C@@H]2CC[C@]2(C)[C@@H](O)CC[C@@H]12 [5α-dihydrotestosterone]
- specific binding of 3H-steroid (steroid specificity) [1]: no specific binding

Compound: C[C@]12CC(=O)[C@H]3[C@@H](CCC4=CC(=O)CC[C@@]43C)[C@@H]1CC[C@@H]2O [11-ketotestosterone]
- specific binding of 3H-steroid (steroid specificity) [1]: no specific binding

Compound: C[C@@H](O)[C@@]1(O)CC[C@H]2[C@@H]3CCC4=CC(=O)CC[C@]4(C)[C@H]3CC[C@@]21C [17,20β-P, 17,20β-dihydroxy-4-pregnen-3-one]
- specific binding of 3H-steroid (steroid specificity) [1]: did not show any specific binding

Compound: CC(=O)[C@@]1(O)CC[C@H]2[C@@H]3CCC4=CC(=O)CC[C@]4(C)[C@H]3CC[C@@]21C [17-P, 17-hydroxyprogesterone]
- displacement of 3H-progesterone ([1]; competition curves, 10 nM 3H-progesterone, 1 nM-10 μM competitor): equipotent with P4
- specific binding of 3H-steroid (steroid specificity) [1]: high affinity
- binding to the control proteins [2]: No binding
- displacement of 3H-progesterone [3]: equipotent with P4

Compound: CC12CCC(=O)C=C1CCC1C2CCC2(C)C1CCC2(O)C(O)CO (stereo not drawn) [20β-S, 17,20β,21-trihydroxy-4-pregnen-3-one]
- Bmax ([4]; Scatchard analysis, [3H]20β-S): 0.204 pmol g^−1 ovary
- time to full displacement ([4]; after 100-fold excess unlabeled 20β-S): ≤ 20 min
- time to reach saturation of binding ([4]; equilibrium study): ≤ 15 min
- concentration at which saturation was achieved ([4]; saturation analysis): approximately 10 nM
- specific binding of 3H-steroid (steroid specificity) [1]: did not show any specific binding

Compound: CC[C@H](C)[C@@H]1NC(=O)[C@H](Cc2ccc(O)cc2)NC(=O)[C@@H](N)CSSC[C@@H](C(=O)N2CCC[C@H]2C(=O)N[C@@H](CC(C)C)C(=O)NCC(N)=O)NC(=O)[C@H](CC(N)=O)NC(=O)[C@H](CCC(N)=O)NC1=O [oxytocin]
- displacement of 3H-progesterone [3]: no displacement

Compound: CC(=O)[C@H]1CC[C@H]2[C@@H]3CCC4=CC(=O)CC[C@]4(C)[C@H]3CC[C@]12C [progesterone]
- Kd [1]: 30 nM
- Bmax ([1]; Scatchard analysis, 3H-progesterone): 0.49 nM
- specific binding of 3H-steroid (steroid specificity) [1]: Highest specific binding
- specific binding to E. coli control proteins ([2]; saturation analysis, 3H-progesterone): no specific binding
- binding to the control proteins [2]: No binding
- Bmax [5]: 0.304 nM
- Kd ([5]; 3H-progesterone 0.5-40 nM): 29 nM
- Bmax [6]: 0.47 nM
- Kd ([6]; 3H-progesterone 0.5-40 nM): 37 nM
- Bmax ([3]; Scatchard analysis): 0.54 nM
- Kd ([3]; Scatchard analysis, 3H-progesterone 0.5-40 nM): 28 nM

Compound: C[C@]12CC[C@H]3[C@@H](CCC4=CC(=O)CC[C@@]43C)[C@@H]1CC[C@@H]2O [testosterone]
- specific binding of 3H-steroid (steroid specificity) [1]: no specific binding

Compound: Vitamin D
- displacement of 3H-progesterone [3]: no displacement
